According to publication PMC12767106, “In Situ Assembly of Transformable Monopeptide on Activated Neutrophils Attenuates NETs‐Induced Hepatocellular Carcinoma Metastasis by Disrupting NE Nuclear Translocation” (Advanced Science, 2025):

Test system: Hepa1-6/luc liver and lung metastasis
Assay: Liver and lung metastasis model
Assay type: in vivo, mouse
Conditions: Hepa1-6/luc cells via spleen or tail vein, 300 µM in 200 µL i.v. every two days, 16 days, n = 5
Excerpt: Submitted to Advanced Science
effector T cells (CD45+CD3+CD8+)/(CD45+CD3+CD4+), tumor cells were stained with anti-CD45-FITC
(Biolegend), anti-CD3ε-PerCP-Cy5.5 (Biolegend), anti-CD4-APC (Biolegend), and anti-CD8a-PE (Biolegend)
antibodies according to the standard protocol. For evaluation of NK cells (CD45+CD3-NK1.1+), tumor cells
were stained with anti-CD45-FITC (Biolegend), anti-CD3-PE (Biolegend) and anti-CD49b-APC (Biolegend)
antibodies and examined using flow cytometry. For MDSCs (CD45+CD11b+Gr-1+) analysis, tumor cells were
stained with anti-CD45-FITC, anti-CD11b-BrilliantViolet-510 (Biolegend), anti -F4/80-PE (Biolegend), and
anti-Gr-1-APC (Biolegend) antibodies for flow cytometry examination (BD FACS Canto SORP, USA). The
software FlowJo V10.6.2 was used for data analysis. To further explore the immunomodulatory effects of FTP-
NPs. Tumor tissues were harvested for immune profiling. Plasma cytokine levels, including IL-6, IL-10, and
TNF-α, were measured using commercially available ELISA kits to assess the immune activation induced by
Experimental liver and lung metastasis model
Six-week-old male C57BL/6J mice (20–25 g) were used to establish liver and lung metastasis models. Hepa1-
6/luc cells (1 × 10^6 cells) were injected into the spleen or tail vein of the mice to induce liver or lung
metastasis, respectively. For the liver metastasis model, Hepa1-6/luc cells were injected into the spleen, allowing
tumor cells to circulate and establish metastases in the liver. For the lung metastasis model, Hepa1-6/luc cells
were injected via the tail vein, leading to the formation of metastases in the lungs. Following cell implantation, […]
euthanized, and metastases were assessed macroscopically. […]
injecting D-Luciferin (150 mg/kg) intraperitoneally, and tumor burden was quantified using the IVIS Spectrum […]
conducted, and metastatic lesions were assessed under an inverted microscope (Axiovert 200, Zeiss, Germany). […]
300 μM per injection) for mice. […] (b) Fluorescence quantized chart […]
experiments. Statistical significance was calculated by one-way ANOVA, *p < 0.050.(c, d) Photographs of lung […]

SMILES: CC(C)(C)C(=O)Oc1ccc(S(=O)(=O)Nc2ccccc2C(=O)NCC(=O)O)cc1 [NEi, Sivelestat, reference compound]
- liver and lung metastasis (bioluminescent signals, number of metastatic foci): obvious metastases
